According to patent US7928107B2, “Quinazolines useful as modulators of ion channels” (Vertex Pharmaceuticals Incorporated, priority 2004, dated 2011):

Molecular target: NaV 1.8 channel (Homo sapiens, UniProt Q9Y5Y9)
Test: Activity against NaV 1.8 channel (optical membrane potential assay)
Type: cell-based
Description: Compounds of the invention are useful as antagonists of voltage-gated sodium ion channels. Antagonist properties of test compounds were assessed as follows. Cells expressing the NaV of interest were placed into microtiter plates. After an incubation period, the cells were stained with fluorescent dyes sensitive to the transmembrane potential. The test compounds were added to the microtiter plate. The cells were stimulated with either a chemical or electrical means to evoke a NaV dependent membrane potential change from unblocked channels, which was detected and measured with trans-membrane potential-sensitive dyes. Antagonists were detected as a decreased membrane potential response to the stimulus. The optical membrane potential assay utilized voltage-sensitive FRET sensors described by Gonzalez and Tsien (See, Gonzalez, J. E. and R. Y. Tsien (1995) “Voltage sensing by fluorescence resonance energy transfer in single cells” Biophys J 69(4): 1272-80, and Gonzalez, J. E. and R. Y. Tsien (1997) “Improved indicators of cell membrane potential that use fluorescence resonance energy transfer” Chem Biol 4(4): 269-77) in combination with instrumentation for measuring fluorescence changes such as the Voltage/Ion Probe Reader (VIPR®) (See, Gonzalez, J. E., K. Oades, et al. (1999) “Cell-based assays and instrumentation for screening ion-channel targets” Drug Discov Today 4(9): 431-439).
24 hours before the assay on VIPR, CHO cells endogenously expressing a NaV1.2 type voltage-gated NaV are seeded in 96-well poly-lysine coated plates at 60,000 cells per well. Other subtypes are performed in an analogous mode in a cell line expressing the NaV of interest. • 1) On the day of the assay, medium is aspirated and cells are washed twice with 225 μL of Bath Solution #2 (BS#2). • 2) A 15 uM CC2-DMPE solution is prepared by mixing 5 mM coumarin stock solution with 10% Pluronic 127 1:1 and then dissolving the mix in the appropriate volume of BS#2. • 3) After bath solution is removed from the 96-well plates, the cells are loaded with 80 μL of the CC2-DMPE solution. Plates are incubated in the dark for 30 minutes at room temperature. • 4) While the cells are being stained with coumarin, a […] solution in BS#2 is prepared. In addition to DiSBAC2(3), this solution should contain 0.75 mM ABSCl and […] (prepared from 10 mM EtOH stock, Sigma #V-5754). • 5) After 30 minutes, CC2-DMPE is removed and the cells are washed twice with 225 μL of BS#2. As before, the residual volume should be 40 μL. • 6) Upon removing the bath, the cells are loaded with 80 μL of the DiSBAC2(3) solution, after which test compound, dissolved in DMSO, is added to achieve the desired test concentration to each well from the drug addition plate and mixed thoroughly. The volume in the well should be roughly 121 μL. The cells are then incubated for 20-30 minutes. • 7) Once the incubation is complete, the cells are ready to be assayed on VIPR® with a sodium add back protocol. 120 μL of Bath solution #1 is added to stimulate the NaV dependent depolarization. […] was used as an antagonist positive control for block of the NaV channel.
Data are analyzed and reported as normalized ratios of background-subtracted emission intensities measured in the 460 nm and 580 nm channels. Background intensities are then subtracted from each assay channel. Background intensities are obtained by measuring the emission intensities during the same time periods from identically treated assay wells in which there are no cells. The response as a function of time is then reported as the ratios obtained using the following formula: […]
The data is further reduced by calculating the initial (Ri) and final (Rf) ratios. These are the average ratio values during part or all of the pre-stimulation period, and during sample points during the stimulation period. The response to the stimulus R=Rf/Ri is then calculated. […]

Sequence of NaV 1.8 channel (Q9Y5Y9 whole entry): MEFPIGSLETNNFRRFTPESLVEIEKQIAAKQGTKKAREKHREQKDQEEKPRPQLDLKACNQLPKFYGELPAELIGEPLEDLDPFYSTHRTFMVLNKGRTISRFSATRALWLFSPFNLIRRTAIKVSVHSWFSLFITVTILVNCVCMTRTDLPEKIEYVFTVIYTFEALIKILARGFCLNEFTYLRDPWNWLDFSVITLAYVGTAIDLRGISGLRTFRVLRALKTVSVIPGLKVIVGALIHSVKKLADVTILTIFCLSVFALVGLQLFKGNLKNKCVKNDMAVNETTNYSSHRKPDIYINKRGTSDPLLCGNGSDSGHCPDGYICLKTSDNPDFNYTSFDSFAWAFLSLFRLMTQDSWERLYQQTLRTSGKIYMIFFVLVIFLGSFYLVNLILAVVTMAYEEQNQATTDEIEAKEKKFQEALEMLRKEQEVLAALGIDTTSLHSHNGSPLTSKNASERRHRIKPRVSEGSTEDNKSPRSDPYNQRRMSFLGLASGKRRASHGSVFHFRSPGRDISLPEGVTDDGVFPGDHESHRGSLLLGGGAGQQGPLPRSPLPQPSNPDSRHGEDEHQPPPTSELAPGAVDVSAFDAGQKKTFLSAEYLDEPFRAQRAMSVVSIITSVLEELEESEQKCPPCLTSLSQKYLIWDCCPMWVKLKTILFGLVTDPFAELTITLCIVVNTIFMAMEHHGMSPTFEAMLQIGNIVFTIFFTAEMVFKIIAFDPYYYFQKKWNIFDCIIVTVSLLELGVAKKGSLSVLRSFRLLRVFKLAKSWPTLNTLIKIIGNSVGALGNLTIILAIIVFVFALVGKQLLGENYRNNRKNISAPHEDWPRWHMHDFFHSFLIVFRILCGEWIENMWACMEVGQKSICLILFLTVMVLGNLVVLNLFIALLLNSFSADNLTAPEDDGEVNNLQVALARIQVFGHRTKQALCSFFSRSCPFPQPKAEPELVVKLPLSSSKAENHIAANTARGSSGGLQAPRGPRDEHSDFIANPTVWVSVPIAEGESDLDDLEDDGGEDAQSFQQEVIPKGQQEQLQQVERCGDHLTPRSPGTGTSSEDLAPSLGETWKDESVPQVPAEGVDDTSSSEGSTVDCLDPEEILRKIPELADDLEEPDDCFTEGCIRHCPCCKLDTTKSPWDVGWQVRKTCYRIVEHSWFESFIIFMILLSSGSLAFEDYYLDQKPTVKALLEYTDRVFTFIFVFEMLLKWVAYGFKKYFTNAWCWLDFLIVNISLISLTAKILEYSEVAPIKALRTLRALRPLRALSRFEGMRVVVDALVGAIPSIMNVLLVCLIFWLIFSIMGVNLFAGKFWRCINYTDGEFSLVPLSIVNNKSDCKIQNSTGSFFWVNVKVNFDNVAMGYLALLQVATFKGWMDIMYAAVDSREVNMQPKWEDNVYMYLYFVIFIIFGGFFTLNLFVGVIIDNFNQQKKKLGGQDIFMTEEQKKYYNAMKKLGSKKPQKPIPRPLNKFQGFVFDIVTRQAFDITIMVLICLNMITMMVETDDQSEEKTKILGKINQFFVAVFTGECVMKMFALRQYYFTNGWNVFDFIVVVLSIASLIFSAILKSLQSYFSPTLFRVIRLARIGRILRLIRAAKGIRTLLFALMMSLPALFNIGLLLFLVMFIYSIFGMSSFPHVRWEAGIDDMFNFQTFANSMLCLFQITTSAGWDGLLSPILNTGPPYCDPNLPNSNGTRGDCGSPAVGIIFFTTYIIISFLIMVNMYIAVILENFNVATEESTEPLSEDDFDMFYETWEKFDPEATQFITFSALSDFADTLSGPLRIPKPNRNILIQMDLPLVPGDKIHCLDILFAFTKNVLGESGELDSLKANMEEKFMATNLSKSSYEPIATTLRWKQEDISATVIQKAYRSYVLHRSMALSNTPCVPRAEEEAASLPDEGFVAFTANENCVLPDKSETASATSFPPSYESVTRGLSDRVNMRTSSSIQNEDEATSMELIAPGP

Structure (SMILES) | IC50
Cc1ccc2c(N3CCN(C(=O)OCc4ccccc4)CC3CO)nc(-c3ccccc3O)nc2c1 (stereo not drawn) [Example 157, 3-Hydroxymethyl-4-[2-(2-hydroxy-phenyl)-7-methyl-quinazolin-4-yl]-piperazine-1-carboxylic acid benzyl ester] | 2 to 10 µM
CCCCC(O)C(=O)N1CCN(c2nc(-c3ccccc3O)nc3ccccc23)CC1 (stereo not drawn) [Example 159, 2-Hydroxy-1-(4-(2-(2-hydroxyphenyl)quinazolin-4-yl)piperazin-1-yl)hexan-1-one] | 2 to 10 µM
O=C(OCC1CCCCO1)N1CCN(c2nc(-c3ccccc3O)nc3ccc(F)cc23)CC1 (stereo not drawn) [Example 160, (Tetrahydro-2H-pyran-2-yl)methyl 4-(6-fluoro-2-(2-hydroxyphenyl)quinazolin-4-yl)piperazine-1-carboxylate] | > 10 µM
Cc1ccc2c(N3CCN(C(=O)[C@H](O)CC(C)(C)O)CC3)nc(-c3ccccc3O)nc2c1 [Example 164, (R)-2,4-Dihydroxy-1-(4-(2-(2-hydroxyphenyl)-7-methylquinazolin-4-yl)piperazin-1-yl)-4-methylpentan-1-one] | > 10 µM
Cc1ccc2c(N3CCN(C(=O)[C@@H](O)C(C)(C)C)CC3)nc(-c3ccccc3O)nc2c1 [Example 166, (S)-2-Hydroxy-1-(4-(2-(2-hydroxyphenyl)-7-methylquinazolin-4-yl)piperazin-1-yl)-3,3-dimethylbutan-1-one] | > 10 µM
Cc1ccc2c(N3CCN(C(=O)[C@H](O)CC(C)C)CC3)nc(-c3ccccc3O)nc2c1 [Example 168, (R)-2-Hydroxy-1-(4-(2-(2-hydroxyphenyl)-7-methylquinazolin-4-yl)piperazin-1-yl)-4-methylpentan-1-one] | 2 to 10 µM
CNCC(=O)N(C)CC(=O)O[C@H](CC(C)C)C(=O)N1CCN(c2nc(-c3ccccc3O)nc3cc(C)ccc23)CC1 [Example 169, (R)-[Methyl-(2-methylamino-acetyl)-amino]-acetic acid 1-{4-[2-(2-hydroxy-phenyl)-7-methyl-quinazolin-4-yl]-piperazine-1-carbonyl}-3-methyl-butyl ester] | > 10 µM
Cc1ccc2c(N3CCN(C(=O)C(O)c4ccc(F)cc4)CC3)nc(-c3ccccc3O)nc2c1 (stereo not drawn) [Example 170, 2-(4-Fluorophenyl)-2-hydroxy-1-(4-(2-(2-hydroxyphenyl)-7-methylquinazolin-4-yl)piperazin-1-yl)ethanone] | > 10 µM
Cc1ccc2c(N3CCN(C(=O)[C@H](O)CC(C)C)CC3CO)nc(-c3ccccc3O)nc2c1 (stereo partly drawn) [Example 172, (R)-2-Hydroxy-1-{3-hydroxymethyl-4-[2-(2-hydroxy-phenyl)-7-methyl-quinazolin-4-yl]-piperazin-1-yl}-4-methyl-pentan-1-one] | > 10 µM
C[C@@H](O)CC(=O)N1CCN(c2nc(-c3ccccc3O)nc3ccccc23)CC1 [Example 173, (R)-3-Hydroxy-1-(4-(2-(2-hydroxyphenyl)quinazolin-4-yl)piperazin-1-yl)butan-1-one] | > 10 µM
CCCC(O)C(=O)N1CCN(c2nc(-c3ccccc3O)nc3ccccc23)CC1 (stereo not drawn) [Example 174, 2-Hydroxy-1-(4-(2-(2-hydroxyphenyl)quinazolin-4-yl)piperazin-1-yl)pentan-1-one] | 2 to 10 µM
Cc1ccc2c(N3CCN(C(=O)CCN4CCCCC4)CC3)nc(-c3ccccc3O)nc2c1 [Example 175, 1-(4-(2-(2-Hydroxyphenyl)-7-methylquinazolin-4-yl)piperazin-1-yl)-3-(piperidin-1-yl)propan-1-one] | > 10 µM
CC[C@@H](C)[C@@H](O)C(=O)N1CCN(c2nc(-c3ccccc3O)nc3cc(C)ccc23)CC1 [Example 176, (2R,3R)-2-Hydroxy-1-(4-(2-(2-hydroxyphenyl)-7-methylquinazolin-4-yl)piperazin-1-yl)-3-methylpentan-1-one] | > 10 µM
CC(O)(C(=O)N1CCN(c2nc(-c3ccccc3O)nc3ccccc23)CC1)C(F)(F)F (stereo not drawn) [Example 178, 2-(Trifluoromethyl)-2-hydroxy-1-(4-(2-(2-hydroxyphenyl)quinazolin-4-yl)piperazin-1-yl)propan-1-one] | > 10 µM
Cc1ccc2c(N3CCN(C(=O)C(O)CC(C)C)CC3)nc(-c3ccccc3O)nc2c1 (stereo not drawn) [Example 180] | 2 to 10 µM
CCC(C)(O)CC(=O)N1CCN(c2nc(-c3ccccc3O)nc3cc(C)ccc23)CC1 (stereo not drawn) [Example 181] | > 10 µM
CC(C)=CC(O)C(=O)N1CCN(c2nc(-c3ccccc3O)nc3cc(C)ccc23)CC1 (stereo not drawn) [Example 189] | 2 to 10 µM
CC(C)(C)C[C@@H](O)C(=O)N1CCN(c2nc(-c3ccccc3O)nc3ccccc23)CC1 [Example 191] | < 2 µM

Results, then the molecule that gave them:

IC50 | Structure (SMILES)
2 to 10 µM | Cc1ccc2c(N3CCN(C(=O)OCc4cccnc4)CC3)nc(-c3c(O)cccc3F)nc2c1 [Example 156, (Pyridin-3-yl)methyl 4-(2-(2-fluoro-6-hydroxyphenyl)-7-methylquinazolin-4-yl)piperazine-1-carboxylate]
> 10 µM | C#CC(O)C(=O)N1CCN(c2nc(-c3ccccc3O)nc3cc(C)ccc23)CC1 (stereo not drawn) [Example 158, 2-Hydroxy-1-(4-(2-(2-hydroxyphenyl)-7-methylquinazolin-4-yl)piperazin-1-yl)but-3-yn-1-one]
2 to 10 µM | Cc1ccc2c(N3CCN(C(=O)OCC4CCOC4)CC3)nc(-c3c(O)cccc3F)nc2c1 (stereo not drawn) [Example 162, (Tetrahydrofuran-3-yl)methyl 4-(2-(2-fluoro-6-hydroxyphenyl)-7-methylquinazolin-4-yl)piperazine-1-carboxylate]
2 to 10 µM | Cc1ccc2c(N3CCN(C(=O)O[C@H]4CCOC4)CC3)nc(-c3c(O)cccc3F)nc2c1 [Example 163, (S)-Tetrahydrofuran-3-yl 4-(2-(2-fluoro-6-hydroxyphenyl)-7-methylquinazolin-4-yl)piperazine-1-carboxylate]
2 to 10 µM | CCC(C)(O)C(=O)N1CCN(c2nc(-c3ccccc3O)nc3cc(C)ccc23)CC1 (stereo not drawn) [Example 165, 2-Hydroxy-1-(4-(2-(2-hydroxyphenyl)-7-methylquinazolin-4-yl)piperazin-1-yl)-2-methylbutan-1-one]
> 10 µM | Cc1ccc2c(N3CCN(C(=O)C(O)c4ccc(F)cc4)CC3)nc(-c3c(O)cccc3F)nc2c1 (stereo not drawn) [Example 167, 1-(4-(2-(2-Fluoro-6-hydroxyphenyl)-7-methylquinazolin-4-yl)piperazin-1-yl)-2-(4-fluorophenyl)-2-hydroxyethanone]
2 to 10 µM | Cc1ccc2c(N3CCN(C(=O)[C@H](O)C(F)(F)F)CC3)nc(-c3ccccc3O)nc2c1 [Example 177, (S)-3,3,3-Trifluoro-2-hydroxy-1-(4-(2-(2-hydroxyphenyl)-7-methylquinazolin-4-yl)piperazin-1-yl)propan-1-one]
> 10 µM | Cc1ccc2c(N3CCN(C(=O)C(O)CCl)CC3)nc(-c3ccccc3O)nc2c1 (stereo not drawn) [Example 179, 3-Chloro-2-hydroxy-1-(4-(2-(2-hydroxyphenyl)-7-methylquinazolin-4-yl)piperazin-1-yl)propan-1-one]
2 to 10 µM | Cc1ccc2c(N3CCN(C(=O)O[C@@H]4CCOC4)CC3)nc(-c3ccccc3O)nc2c1 [Example 182]
2 to 10 µM | Cc1ccc2c(N3CCN(C(=O)O[C@H]4CCOC4)CC3)nc(-c3ccccc3O)nc2c1 [Example 183]
2 to 10 µM | Cc1ccc2c(N3CCN(C(=O)OCC4CCOC4)CC3)nc(-c3ccccc3O)nc2c1 (stereo not drawn) [Example 184]
2 to 10 µM | Cc1ccc2c(N3CCN(C(=O)OCC4CCCO4)CC3)nc(-c3ccccc3O)nc2c1 (stereo not drawn) [Example 185]
< 2 µM | Cc1ccc2c(N3CCN(C(=O)C(=O)C(C)C)CC3)nc(-c3ccccc3O)nc2c1 [Example 186]
2 to 10 µM | Cc1ccc2c(N3CCN(C(=O)[C@H]4CCCO4)CC3)nc(-c3ccccc3O)nc2c1 [Example 187]
2 to 10 µM | Cc1ccc2c(N3CCN(C(=O)O[C@H]4COC5OCC[C@@H]54)CC3)nc(-c3ccccc3O)nc2c1 (stereo partly drawn) [Example 190]
